Reference: patent US7524943B2, “Method for the production of plant seed with modified fiber content and modified seed coat” (National Research Council of Canada, priority 2001, dated 2009)

B1: CJAS1 cDNA: copper chloride-induced cDNA from B. carinata, expressed in antisense orientation from a double 35S promoter (nucleic acid, listed as Brassica carinata)
DNA: ATTGCACCTCTCTCTTTATTCTCTCTCTGCTAATCAACCACTCTCTCTATTTACGTTAGCCGGTAAAAAAATGGTTGAGCAGAAAAAGTTCGCTCTGTTTCTAGCGACTCCTGATTCAGAGTTCGTGAAGAAAGAGTACGGAGGATACCACAACGTGTTCGTGTCCACGTTCGGTGACGAAGGAGAGCATTGGGACTCGTTTAGAGTCGTTGAAGGCGAGTTTCCCGACGAGAAAGATCTTGACAAGTACGACGGTTTCGTTATTAGTGGAAGCTCTCACGATTCCTTCGAGAATGATCCTTGGATCCTTAGGCTATGTGAGATCGTCAAGATACTCGATGAGAAGAAGAAGAAAATTCTTGGCATATGCTTTGGTCACCAGATCATAGCCAGAGTAAGAGGAGGAACAGTGGGAAGAGCAAGGAAGGGACCAGAACTTAAGCTTACAGACATAACCATCGTGAAGGATGCGATTAAACCAGGAAGTTTCTTCGGAAACGAGATTCCGGATAGCATAGCCATCCTAAAGTTACATCAGGACGAAGTGTTAGTGTTGCCTGAATCTGCTAAAGTACTAGCTTATTCAGAAAAGTACGAGGTGGAGATGTTCTCCATTGAGGATCATTTATTCTGTATTCAAGGACATCCCGAGTATAACAGAGAGATTCTCCACGAGATCGTTGATCGTGTTCTTCGTCTTGGCTTCATCAAGGAAGATTTTGCGGATGCGGCAAAAGCCTCGATGGAGAATAGGGGAGCAGACAGGAAACTTTTGGAGACGATTTGCAAGAATTTTCTCAAAGGCAGAGTTCCAGCTAATTAATTAGTTTCACTCCCAAATTATCTATTTGGCTCTTGTTATATTGGAGCTAGCACTTATGGATTTATTATCTTGCTGTATTGTATTCAATATATAACCTATTAATCTCATCCTTGTCAAGGAAACAAAAACTCATATTAATCTCAATGTCATATTTATGTGTTGTTACCCATAAGTAAAATTATTCAATAAAAACTATAGTTTTGCAAAAAAAAAAAAAAAAA

Legend:
CJAS1 = experiment: Inhibitor effects on induction/expression of CJAS1; type: in vivo, B. carinata; conditions: data not shown; for CJAS1 transcript accumulation: non-induced material
Experimental: The effects of the nitric oxide (NO) scavenger 2-phenyl-4,4,5,5-tetramethylimidazolinone-3-oxide-1-oxyl (PTIO), the protein phosphatase type 1 and 2A inhibitor okadaic acid (OKA), the serine/threonine protein kinases inhibitor staurosporine (STAU) and the protein translation inhibitor cycloheximide (CHX) were determined on induction/expression of CJAS1 in B. carinata.

CJAS1 gene = CJAS1 gene expression by Northern blot after treatments; type: in vivo, B. carinata; conditions: treatment of wild-type Brassica plants; data not shown
From the text: CJAS1 gene expression was studied via Northern blot of various plant tissues taken from wild-type Brassica plants (data not shown). […] The amount of transcript in flower bud and silique was slightly greater than in the other tissues. […] The rapid response to Cu and MeJA implies a control mechanism sensitive to membrane damage. The activation of CJAS1 transcription by the four different compounds is unusual but not without precedent.

[1] = test system: Escherichia coli GMP synthetase mutant ght1; experiment: Complementation of Escherichia coli GMP synthetase mutant ght1; type: cell-based; conditions: cDNA in expression vector
From the text: Thus, it is postulated that the protein encodes an amidotransferase activity distinct from GMP synthase that utilizes an aromatic compound for a substrate. This is analogous to a similar step seen for the phenylpropanoid pathway, another pathway that is involved in the formation of fiber (and the seed coat) and is a pathway that utilizes aromatic compounds. In the phenylpropanoid pathway, L-phenyalanine, an aromatic amino acid, is a substrate for the enzyme phenyalanine ammonia lyase (PAL). The enzymatic activity of PAL leads to the formation of cinnamic acid by deamination which eventually leads to the formation of lignin monomers. In the present case, CJAS1 may be a subunit of an enzyme that encodes a […] activity utilized within another secondary metabolite pathway and reduction of the enzyme activity (as evidenced by antisense RNA inhibition of the gene expression) can lead to alteration in the formation of phenolic-related compounds. This alteration may further affect the formation of other compounds in the seed, in particular, compounds that are known to be related to fiber formation.

B. carinata = experiment: Visual characterization of seed coat color of transformed B. carinata; type: in vivo
From the text: The plant transformation vectors carrying the antisense genes made with the defense-related cDNAs were used for plant transformation. The plant species used for transformation was a selection of B. carinata, the same selection that was originally treated with Copper chloride. This selection of B. carinata has dark-colored, thick seed coats. For transformation, Agrobacterium tumifaciens strain GV3101/pMP90 (C. Koncz and J. Schell, 1986, Mol. Gen. Genet. 204:383-396) was used. The transformation vectors were introduced into the Agrobacterium strain using standard techniques. Plant explants were co-cultured for three days then transferred to selective media. Plants were selected on kanamycin.
Transformed B. carinata were analyzed by visual characterization. […] A sample comparison of seeds obtained from wild-type B. carinata and transgenic B. carinata expressing antisense CJAS1 (SEQ ID NO:1) is shown in FIG. 2a and FIG. 2b.

Row | Molecule | CJAS1 transcript accumulation (CJAS1) | amount of CJAS1 transcript (CJAS1 gene) | other results
1 | CC1(C)N([O])C(c2ccccc2)=[N+]([O-])C1(C)C [PTIO, 2-phenyl-4,4,5,5-tetramethylimidazolinone-3-oxide-1-oxyl] | increased | – | –
2 | O=C(O)c1ccccc1O [SA] | – | further increased | –
3 | CN[C@@H]1C[C@H]2O[C@@](C)([C@@H]1OC)n1c3ccccc3c3c4c(c5c6ccccc6n2c5c31)C(=O)NC4 [STAU, staurosporine] | increased | – | interaction with MeJA in induction of CJAS1 expression (CJAS1; with MeJA): acted synergistically
4 | CC1=CC(=O)CC(C)(C)C1(O)/C=C/C(C)=C\C(=O)O (stereo not drawn) [ABA] | – | further increased | –
5 | CC/C=C\CC1C(=O)CCC1CC(=O)OC (stereo not drawn) [MeJA] | – | further increased | –
6 | C[C@@H]1C[C@@H]([C@H](O)CC2CC(=O)NC(=O)C2)C(=O)[C@@H](C)C1 [cycloheximide] | increased | – | –
7 | [Cl][Cu][Cl] [Cu, copper chloride] | – | further increased | –
8 | C=C1[C@@H](O)[C@@H]2O[C@]3(CC[C@H](/C=C/[C@@H](C)[C@@H]4CC(C)=C[C@@]5(O[C@H](C[C@@](C)(O)C(=O)O)CC[C@H]5O)O4)O3)CC[C@H]2O[C@@H]1[C@@H](O)C[C@H](C)[C@H]1O[C@@]2(CCCCO2)CC[C@H]1C [OKA, okadaic acid] | increased | – | –
9 | B1 | – | – | complementation of GMP synthetase mutant [1]: no complementation was observed; transformants producing a lighter-colored (yellow) seed (B. carinata; CJAS1 cDNA antisense): over 50%; seed coat color of transformed plants (B. carinata; antisense orientation, 35S promoter, B. carinata): yellow-colored seed coats
